The source of these data is patent US9789117B2, “Use of sigma ligands in diabetes type-2 associated pain” (LABORATORIOS DEL DR. ESTEVE, S.A., priority 2011, dated 2017).

Common to all, as to format: in vivo, rat
Data set [1] concerns male ZDF (Zucker Diabetic Fatty) rats. Description: Spontaneous locomotor activity (photocell activity chambers). Here is the method: (§1) The example 1 was dissolved in physiological saline (0.9%) and pH was corrected to 5 with NaOH. The compound was administered by the intraperitoneal (i.p.) route. The doses of drug employed in the present study were 64 mg/kg i.p. for acute administration and 25 mg/kg i.p. twice a day (BID) for the chronic treatment during 14 days. The compound and the saline (vehicle) adjusted at pH 5, were administered in a volume of 0.5 ml.
All experimental protocols were performed in strict accordance with the EC regulation for care and use of experimental animals (86/609/EEC). Studies were performed with male ZDF (Zucker Diabetic Fatty) rats (ZDF/Gmi, fa/fa) obtained from Charles Rivers Genetic Models Inc. 6 week old rats were housed in groups of two in standard transparent cages, under a 12 light-dark cycle, and animals were maintained on Purina 5008 (16.7 kcal % fat) diet and sterile tap water, available ad libitum. Nonfasting blood glucose levels and body weight were regularly monitored. […]
it was evaluated using individual photocell activity chambers (Cibertec, Spain). Rats were placed in the recording chambers (55×40 cm, spacing between beams 3 cm) […] after drug administration, and the number of interruptions of photocell beams was recorded over a 30-min period.
Spontaneous locomotor activity is expressed as the percentage of the mean number of crossings of the photocell beams over 30 minutes. […]

Data set [2] has the same test system. Description: Von Frey test (mechanical allodynia, pressure threshold). The protocol:
as §1
(§2) All experimental protocols were performed in strict accordance with the EC regulation for care and use of experimental animals (86/609/EEC). Studies were performed with male ZDF (Zucker Diabetic Fatty) rats (ZDF/Gmi, fa/fa) obtained from Charles Rivers Genetic Models Inc. 6 week old rats were housed in groups of two in standard transparent cages, under a 12 light-dark cycle, and animals were maintained on Purina 5008 (16.7 kcal % fat) diet and sterile tap water, available ad libitum. Nonfasting blood glucose levels and body weight were regularly monitored.
(§3) Acute example 1: animals received one injection (0.5 ml) of example 1 (64 mg/kg i.p.) 30 minutes before behavioral testing (n=8).
(§4) Chronic example 1: animals received one injection (0.5 ml) of example 1 (25 mg/kg BID, for 14 days) (n=8). Behavioral tests were performed once a week during the treatment, and one week after the last administration they were sacrificed and electrophysiological and cardiovascular experiments were carried out.
Mechanical allodynia was assessed using an electronic Von Frey apparatus (EVF3, Bioseb, BP89, Chaville Cedez, France). Rats were placed individually on an elevated iron mesh floor, covered by a transparent plastic cage and were allowed to adapt to the testing environment for at least 15 minutes. The test was done by applying the von Frey filament through the mesh floor to the plantar surface of each hindpaw.
The test was performed three times with approximately 3 min interval between trials. The mean of the three trials was used for data analysis. […]
Von Frey test results are expressed as the percentage of the mean of mechanical threshold obtained from both hindpaws. […]

Data set [3] deals with Aδ-fibres of ZDF rats. As to the kind of experiment: Skin-nerve preparation and electrophysiological recordings (saphenous nerve Aδ-fibres, mechanical stimulation) after chronic treatment. The protocol: as §4
3.2 Skin—Nerve Preparation and Electrophysiological Recordings
In order to minimize pain or discomfort, animals were killed by cervical dislocation. The saphenous nerve and its innervating territory on the hairy hindpaw skin were subcutaneously dissected and excised. […] Neuronal activity was recorded using gold-wire electrodes. Small filaments of the nerve were repeatedly split with sharpened forceps until a single unit activity could be recorded from them. […] Spikes were later analyzed offline using the SPIDI software.
Units were first identified by manual probing of the skin with a blunt glass rod that exerts a pressure of more than 500 mN to search for their receptive field (RF). […] In order to characterize the units, we assessed their conduction velocity (CV) by electrically stimulating the RF with supramaximal square-wave pulses (pulse width, 0.5 ms; train frequency, 0.2 Hz; variable intensity) with a Teflon-coated steel microneurography electrode (shaft diameter 1 mm, bare tip diameter 5-10 μm impedance 1-5 MΩ); an indifferent electrode was placed nearby in the organ bath. […]

Data set [4] has as its system male ZDF (Zucker Diabetic Fatty) rats. As to the kind of experiment: Plantar test (thermal hyperalgesia, withdrawal latency). Conditions: for effect on thermal hyperalgesia (plantar test), acute treatment: single 64 mg/kg i.p., compared with week 7 baseline, 64 mg/kg. The protocol:
as §1, §2, §3, §4
Thermal (heat) hyperalgesia (heat-nociception) was tested using a 37370 plantar test apparatus (Ugo Basile, Comerio VA, Italy). The withdrawal latency from a focused beam of radiant heat applied to the mid plantar surface of the hindpaws was recorded. The intensity of light was adjusted at the start of the experiment such that the control average baseline latencies were about 8 s and a cut-off latency of 30 s was imposed. The withdrawal latency of each paw was measured and the mean value was used for data analysis. The antihyperalgesic effect of the treatment was evidenced as an increase in the withdrawal latency respect to control baseline latencies.
Plantar test results are expressed as the percentage of the mean of thermal latency obtained from both hindpaws.
Data are expresses as mean+standard error mean (SEM). Statistical analysis of drug effects for significant differences between multiple groups were performed by analysis of variance (ANOVA), followed, when appropriate, by post-hoc Newman-Keuls test or Bonferroni Test. P<0.05 was considered as statistically significant.

The mark [5] stands for this setting: ZDF rats, 25 mg/kg i.p. BID for 14 days (week 13 to 15).
Where [6] appears, read: chronic treatment 25 mg/kg for 14 days, twice a day.

Entries after “also recorded” stand apart in the source; their conditions may differ. Where a name gives a salt, the structure may show the parent alone.

For `Cc1cc(OCCN2CCOCC2)nn1-c1ccc2ccccc2c1` [Example 1, 4-{2-[5-methyl-1-(naphthalen-2-yl)-1H-pyrazol-3-yloxy]ethyl}morpholine hydrochloride], the “spontaneous locomotor activity, chronic treatment” value in data set [1] (25 mg/kg i.p. BID for 14 days, vs pretreatment values) was “no differences”. Moreover, the “spontaneous locomotor activity, acute treatment” value in data set [1] (single 64 mg/kg i.p.) is given as “not significantly different”. Further, the “effect on mechanical allodynia (Von Frey test), acute treatment” value in data set [2] (ZDF rats aged 13 weeks, single 64 mg/kg i.p., compared with week 7 baseline, listed as example 1, hydrochloride, 64 mg/kg) was “restored baseline values; also recorded: the mechanical allodynia was reversed; also recorded: reversed the changes in the thresholds”. Besides, in data set [2] (setting [5]), the “effect on mechanical allodynia (Von Frey test), chronic treatment” value is given as “completely reversed”. Also, the “tolerance to the antiallodynic effect” value in data set [2] (setting [6]) is reported as “No tolerance”. For the same compound, the “threshold of response to the mechanical stimulation (electrophysiological recording)” value in data set [3] (25 mg/kg i.p. BID for 14 days, vs vehicle-treated ZDF rats) is “reduced the threshold”. Besides, the “hyperreactivity in response to mechanical stimulation in electrophysiological recordings (Aδ-fibres)” value in data set [3] (chronic treatment, conclusion) is recorded as “reduction of the hyperreactivity”. For the same compound, in data set [4] (ZDF rats aged 13 weeks, acute 64 mg/kg i.p., 30 minutes before test, mean±SEM, vehicle 12.6±6.9%), the “increase of the latency to hindpaw withdrawal in response to thermal stimulation (plantar test)” value is given as 25.5±9.1%. For the same compound, the “effect on thermal hyperalgesia (plantar test), acute treatment” value is “reversed thermal hyperalgesia” in data set [4] (ZDF rats aged 13 weeks, hydrochloride) and “restored baseline values; also recorded: reversed the changes in the thresholds” in data set [4] (ZDF rats aged 13 weeks, listed as example 1, hydrochloride). Besides, the “effect on thermal hyperalgesia (plantar test), chronic treatment” value in data set [4] (setting [5]) is “completely reversed”. In addition, in data set [4] (setting [6]), the “tolerance to the antihyperalgesic effect” value is reported as “No tolerance”.
